Test results as given in ChEMBL document CHEMBL3046907, “Microwave-assisted synthesis of pyrido[1,2-a]benzimidazole derivatives of -aryloxyquinoline and their antimicrobial and antituberculosis activities” (2013).
In brackets after ≈: the same amount, converted by molar mass.

What was measured:
Assay type in all cases: functional
Aspergillus fumigatus = assay: Antifungal activity against Aspergillus fumigatus MTCC 3008 after overnight incubation by broth microdilution method
Bacillus subtilis = assay: Antibacterial activity against Bacillus subtilis MTCC 441 after overnight incubation by broth microdilution method
Clostridium tetani = assay: Antibacterial activity against Clostridium tetani MTCC 449 after overnight incubation by broth microdilution method
Salmonella typhi = assay: Antibacterial activity against Salmonella enterica subsp. enterica serovar Typhi MTCC 98 after overnight incubation by broth microdilution method
Candida albicans = assay: Antifungal activity against Candida albicans MTCC 227 after overnight incubation by broth microdilution method
Vibrio cholerae = assay: Antibacterial activity against Vibrio cholerae MTCC 3906 after overnight incubation by broth microdilution method
Escherichia coli = assay: Antibacterial activity against Escherichia coli MTCC 443 after overnight incubation by broth microdilution method
[1] = system: Mycobacterium tuberculosis; assay: Growth inhibition of Mycobacterium tuberculosis H37Rv at 6.25 ug/ml after 28 days by Lowenstein-Jensen method; conditions: 672 h, read-out: GI
Streptococcus pneumoniae = assay: Antibacterial activity against Streptococcus pneumoniae MTCC 1936 after overnight incubation by broth microdilution method
[2] = system: Mycobacterium tuberculosis; assay: Antitubercular activity against Mycobacterium tuberculosis H37Rv after 28 days by Lowenstein-Jensen method; conditions: 672 h

Row | SMILES | MIC99 (Aspergillus fumigatus) [µg/mL] | MIC99 (Bacillus subtilis) [µg/mL] | MIC99 (Clostridium tetani) [µg/mL] | MIC99 (Salmonella typhi) [µg/mL] | MIC99 (Candida albicans) [µg/mL] | MIC99 (Vibrio cholerae) [µg/mL] | MIC99 (Escherichia coli) [µg/mL] | inhibition of growth at 6.25 µg/mL [1] [%] | MIC99 (Streptococcus pneumoniae) [µg/mL] | MIC [2] [µg/mL]
1 | Cc1ccc(Oc2nc3ccc(C)cc3cc2-c2c(C#N)c(N)n3c(nc4cc(C)ccc43)c2C#N)cc1 | 500 (≈ 1010 µM) | 200 (≈ 404 µM) | 125 (≈ 253 µM) | 250 (≈ 506 µM) | 500 (≈ 1010 µM) | 125 (≈ 253 µM) | 200 (≈ 404 µM) | 58 | 250 (≈ 506 µM) | 
2 | CC1(C)S[C@@H]2[C@H](NC(=O)[C@H](N)c3ccccc3)C(=O)N2[C@H]1C(=O)O [AMPICILLIN] |  | 250 (≈ 715 µM) | 250 (≈ 715 µM) | 100 (≈ 286 µM) |  | 100 (≈ 286 µM) | 100 (≈ 286 µM) |  | 100 (≈ 286 µM) | 
3 | COc1ccc2nc(Oc3ccc(C)cc3)c(-c3c(C#N)c(N)n4c(nc5ccccc54)c3C#N)cc2c1 | > 1000 | 200 (≈ 403 µM) | 125 (≈ 252 µM) | 250 (≈ 503 µM) | 500 (≈ 1010 µM) | 250 (≈ 503 µM) | 125 (≈ 252 µM) | 58 | 500 (≈ 1010 µM) | 
4 | COc1ccc(Oc2nc3ccc(OC)cc3cc2-c2c(C#N)c(N)n3c(nc4cc(C)ccc43)c2C#N)cc1 | > 1000 | 100 (≈ 190 µM) | 200 (≈ 380 µM) | 250 (≈ 475 µM) | 500 (≈ 950 µM) | 125 (≈ 237 µM) | 200 (≈ 380 µM) | 70 | 200 (≈ 380 µM) | 
5 | Cc1ccc2nc(Oc3ccccc3)c(-c3c(C#N)c(N)n4c(nc5ccccc54)c3C#N)cc2c1 | 1000 (≈ 2140 µM) | 200 (≈ 429 µM) | 250 (≈ 536 µM) | 100 (≈ 214 µM) | 250 (≈ 536 µM) | 200 (≈ 429 µM) | 62.5 (≈ 134 µM) | 19 | 200 (≈ 429 µM) | 
6 | NNC(=O)c1ccncc1 [ISONIAZID] |  |  |  |  |  |  |  | 99 |  | 0.2 (≈ 1.46 µM)
7 | COC1=CC(=O)C[C@@H](C)[C@]12Oc1c(Cl)c(OC)cc(OC)c1C2=O [GRISEOFULVIN] | 100 (≈ 283 µM) |  |  |  | 500 (≈ 1420 µM) |  |  |  |  | 
8 | COc1ccc2nc(Oc3ccc(F)cc3)c(-c3c(C#N)c(N)n4c(nc5cc(C)ccc54)c3C#N)cc2c1 | 1000 (≈ 1940 µM) | 250 (≈ 486 µM) | 100 (≈ 194 µM) | 200 (≈ 389 µM) | 500 (≈ 972 µM) | 200 (≈ 389 µM) | 100 (≈ 194 µM) | 96 | 100 (≈ 194 µM) | 12.5 (≈ 24.3 µM)
9 | Cc1ccc2c(c1)nc1c(C#N)c(-c3cc4ccccc4nc3Oc3ccccc3)c(C#N)c(N)n12 | 500 (≈ 1070 µM) | 200 (≈ 429 µM) | 250 (≈ 536 µM) | 200 (≈ 429 µM) | 500 (≈ 1070 µM) | 500 (≈ 1070 µM) | 100 (≈ 214 µM) | 49 | 250 (≈ 536 µM) | 
10 | Cc1ccc2nc(Oc3ccccc3)c(-c3c(C#N)c(N)n4c(nc5cc(C)ccc54)c3C#N)cc2c1 | > 1000 | 500 (≈ 1040 µM) | 250 (≈ 520 µM) | 250 (≈ 520 µM) | 500 (≈ 1040 µM) | 200 (≈ 416 µM) | 250 (≈ 520 µM) | 71 | 100 (≈ 208 µM) | 
11 | Cc1ccc(Oc2nc3ccccc3cc2-c2c(C#N)c(N)n3c(nc4ccccc43)c2C#N)cc1 | 250 (≈ 536 µM) | 250 (≈ 536 µM) | 250 (≈ 536 µM) | 100 (≈ 214 µM) | > 1000 | 100 (≈ 214 µM) | 100 (≈ 214 µM) | 52 | 125 (≈ 268 µM) | 
12 | COc1ccc(Oc2nc3ccc(C)cc3cc2-c2c(C#N)c(N)n3c(nc4ccccc43)c2C#N)cc1 | > 1000 | 125 (≈ 252 µM) | 500 (≈ 1010 µM) | 200 (≈ 403 µM) | 1000 (≈ 2010 µM) | 200 (≈ 403 µM) | 250 (≈ 503 µM) | 62 | 100 (≈ 201 µM) | 
13 | N#Cc1c(-c2cc3ccccc3nc2Oc2ccccc2)c(C#N)c2nc3ccccc3n2c1N | 500 (≈ 1110 µM) | 100 (≈ 221 µM) | 100 (≈ 221 µM) | 250 (≈ 553 µM) | 1000 (≈ 2210 µM) | 200 (≈ 442 µM) | 250 (≈ 553 µM) | 80 | 62.5 (≈ 138 µM) | 
14 | CCn1cc(C(=O)O)c(=O)c2cc(F)c(N3CCNCC3)cc21 [NORFLOXACIN] |  | 100 (≈ 313 µM) | 50 (≈ 157 µM) | 10 (≈ 31.3 µM) |  | 10 (≈ 31.3 µM) | 10 (≈ 31.3 µM) |  | 10 (≈ 31.3 µM) | 
15 | COc1ccc2nc(Oc3ccc(F)cc3)c(-c3c(C#N)c(N)n4c(nc5ccccc54)c3C#N)cc2c1 | 500 (≈ 999 µM) | 200 (≈ 400 µM) | 200 (≈ 400 µM) | 500 (≈ 999 µM) | > 1000 | 200 (≈ 400 µM) | 200 (≈ 400 µM) | 86 | 500 (≈ 999 µM) | 
